Laboratory results taken from patent US11559536B2, “Compositions and methods for the treatment of inflammation in urological pathology” (Duke University, priority 2019, dated 2023).

Assays:
[1] = cited from earlier work
BOO [2] = assay: Evans blue assay in hippocampus after BOO; assay type: in vivo, rat
Experimental: (§1) Sides were alternated thereafter.
Rats were weighed and then injected (i.v. 3 ml/kg) with 2% Evan's blue dye in sterile saline by an investigator blinded to the groups (Belayev et al. (1996) Brain Res 739: 88-96). After one hour, rats were euthanized and transcardially perfused with cold PBS to remove intravascular dye. The brain was isolated and the hippocampus dissected, weighed and placed into formamide (0.25 ml) overnight (56° C.). Absorbance (620 nm) was measured and compared to a standard curve to calculate pg Evans blue/μg tissue.

BOO [3] = assay: Density of activated microglia (IbA1/AIF1) in hippocampus after BOO; assay type: in vivo, rat; settings: 12 weeks of BOO; glyburide pellet
Experimental: as §1
(§2) Brains were fixed (10% neutral buffered formalin; 48 h, rt) and grossly cut (coronally) to the hippocampus before being embedded in paraffin with the plane of the hippocampus on the block face. Citrate antigen retrieval was used prior to staining 10 μm coronal sections with anti-IbA1/AIF1 (1:500) (NBP2-19019; Novus Biologicals, Centennial, Colo.) or Anti-Ki67 (1:500) (ab15580; Abcam, Cambridge, Mass.) via standardard methodology. IbA1 was visualized via HRP development (Vectastain ABC Kit; Vector, Burlingame, Calif.), biotinylated secondary antibody provided). Ki-67 was visualized using a goat anti-rabbit secondary antibody conjugated to Alexa Fluor 488 (111-545-144; Jackson ImmunoResearch Labs, West Grove, Pa.). […]
(§3) A Zeiss Axio Imager 2 microscope (Zeiss, Oberkochen, Germany) running Zen software (Zeiss) using the tiling and stitching feature was used to scan one entire hemisphere. […] Slides were quantitated by a researcher blinded to the groups. For microglia, we demarcated 600,000-700,000 μm^2 of the fascia dentata, counted the number of black/brown spots with two or greater associated tendrils and calculated microglial density. For Ki-67^+ cells we demarcated the entire dentate gyrus, CA1, CA2 and CA3 regions, quantitated nuclei (DAPI^+) that were Ki-67^+ (green florescence) and calculated the density.

BOO [4] = assay: Density of Ki-67+ proliferating cells in hippocampus after BOO; assay type: in vivo, rat; settings: 12 weeks of BOO; glyburide pellet
Experimental: as §1, §2, §3

BOO [5] = assay: Open field assay after BOO; assay type: in vivo, rat; settings: 12 weeks of BOO; glyburide pellet; fluoxetine ≈20 mg/kg/day in drinking water, last 4 weeks
BOO [6] = assay: Sucrose preference assay after BOO; assay type: in vivo, rat; settings: 12 weeks of BOO; glyburide pellet; fluoxetine ≈20 mg/kg/day in drinking water, last 4 weeks
[7] = cited from earlier work; remark: listed apart in the source
BOO [8] = assay: Bladder weight after bladder outlet obstruction (BOO); settings: 12 weeks of BOO; glyburide 50 mg 21-day slow release pellet
Experimental: For most studies rats were assigned to 4 groups; 1) Control, 2) Sham, 3) BOO or 4) BOO+glyburide (Gly). […] For Sham and all BOO groups, animals were anesthetized [ketamine hydrochloride (90 mg/kg), xylazine (10 mg/kg); i.p.] and a 1 mm o.d. catheter (P50 tubing) inserted transurethrally. BOO was created by urethral ligation over a 1 mm catheter. A 5-0 silk suture was passed around the urethra and tied securely for BOO and loosely for Sham. The catheter was removed and the abdominal wall closed. For BOO+Gly, a subcutaneous pocket was made on the side of the neck and a single 50 mg, 21-day slow release pellet (Innovative Research of America, Sarasota, Fla.) inserted and the incision closed. A new pellet was placed (contralateral side) after 21 days. Sides were alternated thereafter.
Bladders from the various groups indicated in FIG. 18 were weighed when they were removed for the various endpoints in this experiment.

[9] = system: caspase-1 activation in urothelial cells; assay: Caspase-1 assay in isolated rat urothelial cells treated with stone DAMPs, with or without inhibitors; settings: for concentration sufficient to completely suppress caspase-1 activation in MSU-treated cells: 1.25 μg/mL MSU 24 h; for maximal response of caspase-1 activation: normalized to 1.25 mM ATP 1 h
Experimental: Briefly, rats were sacrificed and the bladders removed and placed in sterile PBS. Bladders were then inverted over an 18-gauge blunt tip needle, inflated with PBS, and a purse string suture was used to tie off the bladder. The inflated bladder was then submerged in Collagenase P (1 mg/ml in complete media) and shaken for 1 hour at 37° C. […] Media was removed and replaced with fresh media (90 μL for agonist studies, 80 μL for inhibitor studies) just prior to the start of experimental treatments.
Using PBS (for CPPD) or complete media (for MSU), 1:2 serial dilutions were prepared. Wells were then treated with 10 μL of the appropriate dilution of stone DAMP for a final volume of 100 μL. After treatment, cells were incubated for another 24 hours at 37° C.
For inhibition response studies, the general ROS scavenger N-acetylcysteine was prepared to the stock concentration of 5 mM for MSU treatment and to 50 mM for CPPD treatment. Prior to treatment, the stock concentration of NAC was buffered to pH 7.2. […] Using complete media for NAC and PBS for Verapamil, 1:2 serial dilutions were prepared. Cells were treated with 10 μL of NAC or Verapamil and incubated at 37° C. for 1 or 4 hours, respectively. […] Plates were then incubated for an additional 24 hours at 37° C.
Briefly, media was removed and cells lysed in 50 μl lysis buffer (10 mM MgCl2 and 0.25% Igepal CA-630) for 5 minutes. An additional 50 μL of storage buffer (40 mM HEPES (pH 7.4), 20 mM NaCl, 2 mM EDTA and 20% glycerol) was added, and the plates frozen at −80° C. until use (>30 minutes). […] Plates were then incubated in the dark for 1 hour at 37° C. with mild shaking. Florescence was then measured (excitation 400 nm, emission 505 nm).

[10] = system: caspase-1 (inflammasome activation) in urothelial cells; assay: Caspase-1 activity in isolated mouse urothelial cells treated with diabetic DAMPS in vitro; settings: DAMP 24 h (ATP 1 h)

Molecule: O=S(=O)([O-])CCS.[Na+] [Mesna, 2-mercaptoethane sulfonate sodium]
- effects on bone marrow, hepatic, renal or CNS function ([1]; doses up to 100 mg/kg): no apparent effects on bone marrow, hepatic, renal or CNS function
- fate in plasma ([1]; only a very small portion remaining in circulation): rapid oxidation in plasma

Molecule: COc1ccc(Cl)cc1C(=O)NCCc1ccc(S(=O)(=O)NC(=O)NC2CCCCC2)cc1 [GLY, glyburide]
- Evan's blue dye extravasation in the hippocampus (BOO [2]; 6 weeks of BOO, glyburide treatment): blocked
- leakage of Evan's blue into the hippocampus (BOO [2]; 12 weeks of BOO, glyburide pellet): reduced back to control levels
- density of activated microglia in the hippocampus (BOO [3]): reduced back to control levels
- concentration of proliferating cells (Ki-67+) in the hippocampus (BOO [4]): blocked
- open field: time exploring the middle of the field (BOO [5]): restored this behavior
- sucrose preference (BOO [6]): restored
- crossing of the blood brain barrier ([7]; intact barrier): does not cross the blood brain barrier
- binding in the serum ([7]; serum): mostly albumin-bound
- bladder weight (BOO [8]): suppresses this increase

Molecule: CC(=O)N[C@@H](CS)C(=O)O [NAC, N-acetylcysteine]
- concentration sufficient to completely suppress caspase-1 activation in MSU-treated cells [9]: 500 µM
- concentration sufficient to completely suppress caspase-1 activation in CPPD-treated cells ([9]; 62.5 μg/mL CPPD 24 h, NAC 1 h before): 5 mM

Molecule: CNCCC(Oc1ccc(C(F)(F)F)cc1)c1ccccc1 (stereo not shown) [fluoxetine]
- open field: time exploring the middle of the field (BOO [5]): restored the exploratory behavior of these rats back to levels not statistically different from control
- sucrose preference (BOO [6]): restored sucrose preference back to levels not statistically different from control

Molecule: CN(N=O)C(=O)N[C@H]1C(O)O[C@H](CO)[C@@H](O)[C@@H]1O (mixture of isomers) [streptozotocin]
- caspase-1 activity (inflammasome activation) [10]: directly activates the inflammasome

Molecule: O=P([O-])([O-])OP(=O)([O-])[O-].[Ca+2].[Ca+2] [CPPD, calcium pyrophosphate]
- maximal response of caspase-1 activation ([9]; 24 h treatment): approximately 50 % of the ATP response
- EC50 ([9]; Rattus norvegicus, 24 h, read-out: EC50 of caspase-1 activation): 62.5 µg/mL

Molecule: O=c1[nH]c(=O)c2[nH]c([O-])nc2[nH]1.[Na+] [MSU, monosodium urate]
- caspase-1 activity (inflammasome activation) [10]: activation of caspase-1
- EC50 of caspase-1 activation ([9]; 24 h treatment of rat urothelial cells): 0.156 µg/mL
- maximal response of caspase-1 activation ([9]; 24 h treatment): 25 % of the ATP response

Molecule: COc1ccc(CCN(C)CCCC(C#N)(c2ccc(OC)c(OC)c2)C(C)C)cc1OC (stereo not shown) [Verapamil]
- concentration sufficient to completely suppress caspase-1 activation in MSU-treated cells [9]: 150 µM
- IC50 ([9]; Rattus norvegicus, read-out: IC50 of caspase-1 activation in CPPD-treated cells): 100 µM

Molecule: CCCCCCCCCCCCC/C=C/[C@@H](O)[C@H](CO)NC(=O)CCCCC [C6-ceramide, N-hexanoyl-D-erythro-sphingosine]
- caspase-1 activity (inflammasome activation) [10]: activation of caspase-1

Molecule: AGES
- caspase-1 activity (inflammasome activation) [10]: activation of caspase-1

Molecule: O=C([O-])C(=O)[O-].[Ca+2] [calcium oxalate]
- caspase-1 activation in urothelial cells ([9]; 24 h treatment): activates caspase-1 in urothelial cells in a dose-dependent manner

Molecule: Nc1ncnc2c1ncn2[C@@H]1O[C@H](COP(=O)(O)OP(=O)(O)OP(=O)(O)O)[C@@H](O)[C@H]1O [ATP]
- caspase-1 activity (inflammasome activation) [10]: elicited a classic dose response

B1: HMGB-1: high mobility group box 1 protein (ProSci), diabetic DAMP (protein, UniProt P09429 1-215, looked up)
High mobility group protein B1: MGKGDPKKPRGKMSSYAFFVQTCREEHKKKHPDASVNFSEFSKKCSERWKTMSAKEKGKFEDMAKADKARYEREMKTYIPPKGETKKKFKDPNAPKRPPSAFFLFCSEYRPKIKGEHPGLSIGDVAKKLGEMWNNTAADDKQPYEKKAAKLKEKYEKDIAAYRAKGKPDAAKKGVVKAEKSKKKKEEEEDEEDEEDEEEEEDEEDEDEEEDDDDE
- caspase-1 activity (inflammasome activation) [10]: activation of caspase-1
